Experimental data reported in US20090227556A1, “RECEPTOR TYROSINE KINASE INHIBITORS COMPRISING PYRIDINE AND PYRIMIDINE DERIVATIVES” (Eisai R&D Management Co., Ltd., priority 2008, published 2009).

Assays:
[1] = tested on: Human umbilical vein endothelial cells (HUVECs); assay: Growth inhibitory activity on human umbilical vein endothelial cells stimulated by VEGF; format: cell-based; conditions: HUVEC, 72 h, 3 days, Cell Counting Kit-8
Method: Human umbilical vein endothelial cells (HUVECs) were isolated according to the reported method (Shin-seikagaku jikken kouza “saibou baiyou gijutu (Cell culturing techniques)” p. 197-202) and incubated to confluence using an EGM-2 culture medium (obtained from Sanko Junyaku Co., Ltd.) in a 5% CO2 incubator (37° C.). The HUVECs were collected by a trypsin-EDTA treatment and washed with a culture medium (2% fetal bovine serum-supplemented Human endothelial SFM basal medium, obtained from Invitrogen Corp.), followed by suspending them in the medium to count the cell number. By diluting it with the medium, a 2×10^4 cells/ml cell suspension was prepared. The cell suspension was dispensed into a 96-well plate (obtained from FALCON) by 100 μl each, and incubated at 37° C. in a 5% CO2 incubator overnight. After the incubation, 50 μl of the test substance diluted with the medium was added to each well, and 50 μL of 80 ng/ml human recombinant VEGF (obtained from R&D systems, Inc.) diluted with the medium was added and further incubated for 3 days in the 5% CO2 incubator (37° C.). After the incubation, 20 μl of Cell Counting Kit-8 (obtained from DOJINDO Laboratories) was added to each well, which were incubated for about 2 hours in the 5% CO2 incubator (37° C.). After the incubation, the absorbance of the each well was measured using a plate reader MTP-500 (Corona Electric Co., Ltd) with a measurement wavelength of 450 nm and a control wavelength of 660 nm. A ratio of absorbance (%) of each well with the test substance against the wells without the test substance was determined, and based on this ratio, the concentration of the test substance required to inhibit 50% of cell proliferation (IC50) was determined and the results are shown in Table 2.

[2] = biological target: T1, VEGFR-2 tyrosine kinase (His6-VEGFR-2, cytoplasmic domain) (Homo sapiens, UniProt P35968); assay: Inhibitory activity on VEGFR-2 tyrosine kinase (HTRF); format: biochemical; conditions: biotin-poly(GT) substrate
T1 construct: made in house; host or cells: Sf9 insect cells (baculovirus, pFastBac-HT)
T1 sequence (P35968 786-1356 limits assumed): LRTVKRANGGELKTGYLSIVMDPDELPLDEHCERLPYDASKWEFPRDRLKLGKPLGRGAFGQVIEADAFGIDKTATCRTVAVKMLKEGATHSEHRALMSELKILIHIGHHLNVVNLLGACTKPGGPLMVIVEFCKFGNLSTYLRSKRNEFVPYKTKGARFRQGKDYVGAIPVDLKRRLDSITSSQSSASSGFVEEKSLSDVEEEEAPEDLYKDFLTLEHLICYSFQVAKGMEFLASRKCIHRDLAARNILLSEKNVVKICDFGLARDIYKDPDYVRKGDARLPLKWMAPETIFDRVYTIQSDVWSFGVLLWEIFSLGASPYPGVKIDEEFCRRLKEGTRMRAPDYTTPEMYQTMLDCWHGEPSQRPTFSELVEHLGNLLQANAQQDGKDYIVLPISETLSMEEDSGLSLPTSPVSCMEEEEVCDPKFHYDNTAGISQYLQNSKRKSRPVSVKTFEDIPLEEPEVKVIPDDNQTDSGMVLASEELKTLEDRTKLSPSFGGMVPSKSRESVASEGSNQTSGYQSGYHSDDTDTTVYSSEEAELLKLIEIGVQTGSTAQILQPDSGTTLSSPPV
Source text: Cytoplasmic domain of VEGFR-2 (Genbank Accession No. L04947) is a 1.7 kb DNA fragment starting from lysine 791 and contains a stop codon, as described by Tarman et al. (Oncogene, 6(9), 1677-1683, 1991). This DNA fragment was isolated from a human placental cDNA library (obtained from Clontech Laboratories, Inc.) with two primers (obtained from TaKaRa Ex Taq™ Kit, TaKaRa) using a PCR method. This DNA fragment was cloned into a baculovirus transplace vector (pFastBac™-HT (obtained from GIBCO BRL)), to obtain a recombinant construct. An insect cell (Spodoptera frugiperda 9 (Sf9)) was transfected with it, and a VEGFR-2 recombinant baculovirus solution was prepared (preparation of the recombinant baculovirus can be found in a standard textbook (Bac-to-Bac Baculovirus Expression System (GIBCO BRL)).
To Sf9 cells (3×10^8 cells) suspended in a SF-90011 culture medium containing 2% FBS (obtained from Invitrogen Corp.), the above mentioned recombinant VEGFR-2 baculovirus solution (4 ml) was added and incubated with shaking at 27° C. for 48 hours. The recombinant VEGFR-2 baculovirus-infected cell culture was centrifuged at 4° C. at 1000 rpm for 5 minutes, and the supernatant was removed. The precipitated infected cells were suspended in 80 ml of ice-cold PBS, the suspension was centrifuged at 4° C. at 1000 rpm for 5 minutes, and the supernatant was removed. The precipitated infected cells were suspended in 40 ml of ice-cold Lysis Buffer (50 mM Tris-HCl (pH 8.5), 5 mM 2-mercaptoethanol, 100 mM KCl, 1 mM PMSF, and 1% (v/v) NP-40). This suspension was centrifuged at 4° C. at 12,000 rpm for 30 min to obtain a supernatant.
This supernatant was added to a Ni-NTA agarose column (3 ml, obtained from Qiagen) which had been equilibrated with 30 ml of Buffer A (20 mM Tris-HCl (pH 8.5), 5 mM 2-mercaptoethanol, 500 mM KCl, 20 mM imidazole, and 10% (v/v) glycerol). This column was washed sequentially with 30 ml of Buffer A, 6 ml of Buffer B (20 mM Tris-HCl (pH 8.5), 5 mM 2-mercaptoethanol, 1M KCl, and 10% (v/v) glycerol), and 6 ml of Buffer A. Then, to this column, 6 ml of Buffer C (20 mM Tris-HCl (pH 8.5), 5 mM 2-mercaptoethanol, 100 mM KCl, 100 mM imidazole, and 10% (v/v) glycerol) was added to obtain an eluate. This eluate was poured into a dialysis membrane (obtained from Spectrum Laboratories) and dialyzed with 1 liter of dialysis buffer (20 mM Tris-HCl (pH 7.5), 10% (v/v) glycerol, 1 mM DTT, 0.1 mM Na3VO4, 0.1 mM EGTA) at 4° C. overnight and stored at −80° C. until use. After the dialysis, a part of the eluate was subjected to a SDS electrophoresis, and the recombinant protein (His 6-VEGFR-2, a cytoplasmic domain of VEGFR-2 fused with 6 histidine residues on its N-terminus) detected at about 100 kDa Mw in Coomassie Brilliant Blue staining was subjected to protein quantification using BSA (obtained from Sigma Co. Ltd.) as a standard.
In each well of a 96-well round bottom plate (obtained from NUNC, product number 163320), 10 μl of a solution for kinase reaction (200 mM Hepes (pH 7.4), 80 mM MgCl2, 16 mM MnCl2, 2 mM Na3VO4), 250 ng of biotin-conjugated poly (Glu 4: Tyr 1) (biotin-poly (GT) obtained from Nihon Schering K.K.) (6 μl of 1/15 diluted solution with distilled water), 15 ng of His6-VEGFR-2 (10 μl of a 1/240 diluted solution with a 0.4% BSA solution), and a test substance solution in dimethyl sulfoxide (4 μl of 1/100 dilution with 0.1% BSA) were added to make a total volume of 30 μl. To them, 10 μl of 4 μM ATP (obtained from Sigma Co. Ltd.) diluted with distilled water was added, and the resultant was incubated for 10 minutes at 30° C., followed by addition of 10 μl of 500 mM EDTA (pH 8.0) (obtained from Wako Pure Chemical Industries, Ltd.) to obtain a kinase reaction solution.
To detect tyrosine-phosphorylated biotin-poly (GT), the Homogenous Time-Resolved Fluorescence (HTRF) method was used (Analytical Biochemistry, 269, 94-104, 1999). […]

Row | SMILES | IC50 [1] | IC50 [2]
1 | O=C(Nc1cc(Oc2cc(F)c(NC(=O)C3(C(=O)Nc4ccc(F)cc4)CC3)cc2F)ccn1)N1CC(CO)C1 [N-(2,5-Difluoro-4-{[2-({[3-(hydroxymethyl)azetidin-1-yl]carbonyl}amino)pyridin-4-yl]oxy}phenyl)-N′-(4-fluorophenyl)cyclopropane-1,1-dicarboxamide] | 0.0055 µM | 0.01 µM
2 | CN1CCN(C2CCN(C(=O)Nc3cc(Oc4cc(F)c(NC(=O)C5(C(=O)Nc6ccc(F)cc6)CC5)cc4F)ccn3)CC2)CC1 [N-(2,5-Difluoro-4-{[2-({[4-(4-methylpiperazin-1-yl)piperidin-1-yl]carbonyl}amino)pyridin-4-yl]oxy}phenyl)-N′-(4-fluorophenyl)cyclopropane-1,1-dicarboxamide] | 0.02 µM | 0.1 µM
3 | CN1CCC(N(C)C(=O)Nc2cc(Oc3cc(F)c(NC(=O)C4(C(=O)Nc5ccc(F)cc5)CC4)cc3F)ccn2)CC1 [N-(2,5-Difluoro-4-{[2-({[methyl(1-methylpiperidin-4-yl)amino]carbonyl}amino)pyridin-4-yl]oxy}phenyl)-N′-(4-fluorophenyl)cyclopropane-1,1-dicarboxamide] | 0.021 µM | 0.095 µM
4 | O=C(Nc1cc(Oc2ccc(NC(=O)C3(C(=O)Nc4ccc(F)cc4)CC3)c(F)c2)ccn1)N1CCC1 [N-[4-({2-[(Azetidin-1-ylcarbonyl)amino]pyridin-4-yl}oxy)-2-fluorophenyl]-N′-(4-fluorophenyl)cyclopropane-1,1-dicarboxamide] | 0.038 µM | 0.059 µM
5 | O=C(Nc1cc(Oc2cc(F)c(NC(=O)C3(C(=O)Nc4ccc(F)cc4)CC3)cc2F)ccn1)N1CC(O)C1 [N-{2,5-Difluoro-4-[(2-{[(3-hydroxyazetidin-1-yl)carbonyl]amino}pyridin-4-yl)oxy]phenyl}-N′-(4-fluorophenyl)cyclopropane-1,1-dicarboxamide] | 0.015 µM | 0.0095 µM
